The subject of data set [1] is HBEC. Briefly: ATPlite secondary toxicity assay. A general note: ATP-based viability assays read luminescence as a measure of living cells.
Source text: In addition, a second toxicity assay was developed using the ATPlite (Perkin Elmer) assay to evaluate possible toxicity caused by target viruses. With this assay ATP, which is produced by metabolically active cells, reacts with luciferase and D-luciferin to emit light. This assay is based on the luciferase-mediated and ATP-dependent conversion of D-luciferin into oxyluciferin resulting in emission of light. The emitted light, measured as luminescence, is proportional to the ATP concentration in the sample and thus to the number of viable cells.
A staurosporin concentration curve (two-fold dilution ranging from 1 to 0.03 μM) was added to each cell plate as a reference for toxicity and the ATPlite read-out was performed.
The data after log transformation and robust Z-score normalization based on negatives was used for the analysis of the results.
The subject of data set [2] is HBEC. Briefly: CellTiter-Blue (CTB) cell viability assay in on target screen. In general terms: Resazurin is reduced to fluorescent resorufin, in cell work by metabolically active cells.

From patent US20160003808A1, “MOLECULAR TARGETS AND COMPOUNDS, AND METHODS TO IDENTIFY THE SAME, USEFUL IN THE TREATMENT OF DISEASES ASSOCIATED WITH EPITHELIAL MESENCHYMAL TRANSITION” (GALAPAGOS NV, priority 2013, published 2016) come the findings set out here.

In the case of `CN[C@@H]1C[C@H]2O[C@@](C)([C@@H]1OC)n1c3ccccc3c3c4c(c5c6ccccc6n2c5c31)C(=O)NC4` [staurosporin], the toxicity with HBEC [1] (0.6 μM staurosporin treatment) is on record as 30%. Also, the “average Z-score” value in the data set on HBEC [1] (0.6 μM staurosporin, robust Z-score on negatives) is given as −5.5. Also, the “luminescence at highest concentration of staurosporin used” value with HBEC [1] (concentration curve 1 to 0.03 μM) is reported as “decreased the luminescence to near background signal”. Also, the “average Z-score of CTB data” value with HBEC [2] (0.03 μM staurosporin, lowest concentration of the standard curve) was “within the same range as the control panel and the trigger only samples”. The “Z-score of CTB data” value in the data set on HBEC [2] (0.06 μM staurosporin) is recorded as “decreased clearly”.
